This experiment deals with SRS-A (Slow Reacting Substance of Anaphylaxis) synthesis in rat polymorpholeukocyte (PMN). Briefly: Inhibiting activity of SRS-A (Slow Reacting Substance of Anaphylaxis) synthesis in rat polymorpholeukocyte (PMN) using the calcium ionophore; i-LTC4 by radioimmunoassay. It is filed as cell-based. Particulars: 0.25 h, 10 μM A23187, 15 min at 37° C., i-LTC4 readout. On the procedure: Test : Inhibiting activity of SRS-A (Slow Reacting Substance of Anaphylaxis) synthesis in rat polymorpholeukocyte (PMN) of using the calcium ionophore
Preparation of PMN from rat
Male Spraque-Dawley rats weighing 250-300 g were anesthetized with ether and each was injected intraperitoneally with 20 ml of 0.1% glycogen (from Oyster). After 20 hours the rats were sacrificed and PMN were recovered in rinse of the peritoneal cavity with 10 ml Dulbeccos PBS (components in G/L : CaCl 0.1, KH2 PO4 0.2, MgCl2.6H2 O 0.1, NaCl 8.0, Na2 HPO4.7H2 O 2.16; pH 7.4). These rinses were filtered through nylon wool filter and centrifuged for 5 min at 1000 xg. The pellet was suspended in Dulbeccos PBS and centrifuged for 5 min at 1000 xg. The pellet was resuspended in Dulbeccos PBS and adjusted the cell concentration to 10^7 cells/ml with Dulbeccos PBS.
Samples were dissolved in ethanol and dispersed in Dulbeccos PBS to give a concentration of 10^-8 to 10^-3 M. Antibiotic A23187; calcium ionophor (Dehring Diagnostics; (hereinafter referred to A23187) in DMSO (10mM) was diluted with Dulbeccos PBS tc give the concentration of 1 mM. Aliquots of the cell suspension (1×10^7 cells/ml, 0.98 ml) were equilibrated for 30 min at 37° C. Solution of sample(10 ul) was added and incubated for 15 min at 37° C. before the addition of 10 μl of A23187 solution. Thus the final incubation volume of 1 ml contained approximately 1×10^7 cells, 10^-10 to […] M samples and 10 μM A23187. Incubation with A23187 were continued for 15 min at 37° C. The reactions were terminated by setting the assay tubes in ice bath to chill as rapidly as possible to 4° C. The test tubes were centrifuged at 1500 xg for 5 min at 4° C. and decanted the supernatants into the tubes and kept cold prior to assaying.
Determination of immunoreactive LTC4 (i-LTC4)
The concentration of i-LTC4 in the cell-free supernatants from the incubations were determined by specific radioimmunoassay. The mean values of i-LTC4 (these incubations were carried out in duplicate) of each sample were calculated and the effect of samples on the synthesis of the leukotrienes was presented as a percentage of the value in the absence of samples.

Where a name gives a salt, the structure may show the parent alone.

The text below walks through data of patent US5081126A, “Quinolyl- and isoquinolyl-methoxyphenyl-dithioacetyl derivatives useful as antiinflammatory agents” (Fujisawa Pharmaceutical Co., Ltd., priority 1987, dated 1992).

As a reminder, the IC50 is the concentration that inhibits the measured activity by half.

On to `CCCSC(SCCC)c1cccc(OCc2nc3ccccc3s2)c1` [Example 1, 2-[[[3-bis(propylthio)methyl]phenoxy]methyl]benzothiazole], for which the IC50 is 300 nM.

Turning to `CCCSC(SCCC)c1cccc(OCc2ccccn2)c1` [Example 2, 2-[[[3-Bis(propylthio)methyl]phenoxy]methyl]pyridine hydrochloride], the IC50 came to 520 nM.

As to `CCCSC(SCCC)c1cccc(OCc2ccc3ccccc3n2)c1` [Example 3, 2-[[[3-bis(propylthio)methyl]phenoxy]methyl]quinoline hydrochloride], the IC50 came out at 39 nM.

On to `CCCSC(SCCC)c1ccc(OCc2ccc3ccccc3n2)cc1` [Example 5, 2-[[[4-Bis(propylthio)methyl]phenoxy]methyl]quinoline hydrochloride], for which the IC50 was 110 nM.

Take `CCSC(SCC)c1cccc(OCc2ccc3ccccc3n2)c1` [Example 6, 2-[[[3-Bis(ethylthio)methyl]phenoxy]methyl]quinoline hydrochloride]: the IC50 was found to be 130 nM.

Regarding `CCCCSC(SCCCC)c1cccc(OCc2ccc3ccccc3n2)c1` [Example 7, 2-[[[3-Bis(butylthio)methyl]phenoxy]methyl]quinoline hydrochloride], the IC50 turned out to be 160 nM.

Take `CCCCCSC(SCCCCC)c1cccc(OCc2ccc3ccccc3n2)c1` [Example 8, 2-[[[3-Bis(pentylthio)methyl]phenoxy]methyl]quinoline hydrochloride]: the IC50 was 330 nM.

On to `CC(C)SC(SC(C)C)c1cccc(OCc2ccc3ccccc3n2)c1` [Example 9, 2-[[[3-Bis(isopropylthio)methyl]phenoxy]methyl]quinoline hydrochloride], for which the IC50 worked out at 100 nM.

As to `c1ccc(SC(Sc2ccccc2)c2cccc(OCc3ccc4ccccc4n3)c2)cc1` [Example 10, 2-[[[3-Bis(phenylthio)methyl]phenoxy]methyl]quinoline hydrochloride], the IC50 stood at 1100 nM.

`c1ccc(CSC(SCc2ccccc2)c2cccc(OCc3ccc4ccccc4n3)c2)cc1` [Example 11, 2-[[[3-Bis(benzylthio)methyl]phenoxy]methyl]quinoline]: the IC50 was 1400 nM.

As to `CC(C)SC(SC(C)C)c1cccc(OCc2nc3ccccc3s2)c1` [Example 16, 2-[[[3-Bis(isopropylthio)methyl]phenoxy]methyl]benzothiazole], the IC50 is 110 nM.

On to `CCCSC(SCCC)c1cccc(OCc2ncc3ccccc3n2)c1` [Example 22, 2-[[[3-Bis(propylthio)methyl]phenoxy]methyl]quinazoline hydrochloride], for which the IC50 turned out to be 850 nM.
